One data set addresses Bcr/Abl fusion protein (Homo sapiens, UniProt P00519). Nature of the data set: Inhibition of Bcr-Abl (unknown origin).
Data set [1] is described as follows: in vivo. The following applies: ICR, mouse, po, 15 mg/kg.
Description: Tmax in ICR mouse at 15 mg/kg, po measured upto 24 hrs by LC-MS/MS analysis
The nature of data set [2]: Half life in ICR mouse at 5 mg/kg, iv measured upto 24 hrs by LC-MS/MS analysis. The following applies: in vivo.
The nature of data set [3]: MRT in ICR mouse at 5 mg/kg, iv measured upto 24 hrs by LC-MS/MS analysis. To be noted: in vivo.
Data set [4] is described as follows: in vivo. The following applies: ICR, mouse, iv, 5 mg/kg.
Data set [5] can be described thus: in vivo. To be noted: ICR, mouse, po, 15 mg/kg. The source holds these as a separate data set.
Description: AUC (0 to t) in ICR mouse at 15 mg/kg, po measured upto 24 hrs by LC-MS/MS analysis
Data set [6] is described as follows: Metabolic stability in human liver microsomes assessed as intrinsic clearance. Background: Liver microsomes are vesicles of endoplasmic reticulum, rich in cytochrome P450 enzymes.
A short description of data set [7]: Half life in ICR mouse at 15 mg/kg, po measured upto 24 hrs by LC-MS/MS analysis. To be noted: in vivo.
Data set [8] can be described thus: Clearance in ICR mouse at 5 mg/kg, iv measured upto 24 hrs by LC-MS/MS analysis. To be noted: in vivo.
Data set [9] can be described thus: in vivo. The following applies: ICR, mouse, po, 15 mg/kg. This is another data set of the same source.
Description: Oral bioavailability in ICR mouse at 15 mg/kg measured upto 24 hrs by LC-MS/MS analysis
The nature of data set [10]: Metabolic stability in human liver microsomes assessed as half life.
Data set [11] in a line: MRT in ICR mouse at 15 mg/kg, po measured upto 24 hrs by LC-MS/MS analysis. The following applies: in vivo.
A short description of data set [12]: in vivo. To be noted: ICR, mouse, po, 15 mg/kg. This is another data set of the same source.
Description: Cmax in ICR mouse at 15 mg/kg, po measured upto 24 hrs by LC-MS/MS analysis
Data set [13] has as its target Voltage-gated inwardly rectifying potassium channel KCNH2 (Homo sapiens, UniProt Q12809).
For data set [14], the target named is ATP-dependent Clp protease proteolytic subunit, mitochondrial (Homo sapiens, UniProt Q16740). Nature of the data set: Activation of human ClpP extracted from Escherichia coli using Ac-WLA-AMC as substrate assessed as fluorescence signal measured after 10 mins incubation.
Chain of ATP-dependent Clp protease proteolytic subunit, mitochondrial (Q16740 whole entry): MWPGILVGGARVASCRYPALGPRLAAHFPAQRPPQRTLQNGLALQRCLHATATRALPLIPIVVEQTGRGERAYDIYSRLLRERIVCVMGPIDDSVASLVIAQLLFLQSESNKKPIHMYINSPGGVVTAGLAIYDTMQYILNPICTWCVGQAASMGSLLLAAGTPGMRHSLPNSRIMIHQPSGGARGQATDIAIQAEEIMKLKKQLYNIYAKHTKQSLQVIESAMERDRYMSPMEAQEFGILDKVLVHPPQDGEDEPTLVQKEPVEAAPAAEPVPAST
The next data set concerns OCI-Ly10. Nature of the data set: Antiproliferative activity against human OCI-Ly10 cells assessed as cell viability measured after 72 hrs incubation by CellTiter-based growth inhibition assay. The following applies: OCI-Ly10, 72 h.
In data set [15] the target is T1, 3-hydroxy-3-methylglutaryl-coenzyme A reductase (Rattus norvegicus, UniProt P51639).
T1 sequence (P51639 whole entry): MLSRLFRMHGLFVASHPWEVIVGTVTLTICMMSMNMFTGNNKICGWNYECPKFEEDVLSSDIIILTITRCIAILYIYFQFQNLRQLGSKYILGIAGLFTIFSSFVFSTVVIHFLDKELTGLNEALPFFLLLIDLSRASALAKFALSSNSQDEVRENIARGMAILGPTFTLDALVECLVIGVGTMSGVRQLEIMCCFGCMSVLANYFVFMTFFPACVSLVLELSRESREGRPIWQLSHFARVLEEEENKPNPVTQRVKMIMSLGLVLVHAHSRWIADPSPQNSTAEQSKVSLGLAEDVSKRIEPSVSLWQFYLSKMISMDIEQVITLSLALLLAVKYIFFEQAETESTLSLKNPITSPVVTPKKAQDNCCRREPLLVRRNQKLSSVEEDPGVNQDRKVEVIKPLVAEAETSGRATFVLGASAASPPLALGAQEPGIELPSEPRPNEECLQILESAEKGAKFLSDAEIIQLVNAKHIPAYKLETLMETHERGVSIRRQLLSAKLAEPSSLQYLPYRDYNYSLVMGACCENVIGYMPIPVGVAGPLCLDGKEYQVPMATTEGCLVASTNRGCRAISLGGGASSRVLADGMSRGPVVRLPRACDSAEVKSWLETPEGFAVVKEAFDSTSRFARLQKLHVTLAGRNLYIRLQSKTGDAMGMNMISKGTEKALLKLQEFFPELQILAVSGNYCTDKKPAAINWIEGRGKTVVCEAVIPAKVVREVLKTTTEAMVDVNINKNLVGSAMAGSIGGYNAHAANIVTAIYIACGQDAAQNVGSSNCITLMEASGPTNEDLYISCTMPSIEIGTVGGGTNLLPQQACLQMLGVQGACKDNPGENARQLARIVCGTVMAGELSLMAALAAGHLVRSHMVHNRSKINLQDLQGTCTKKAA
Description: Inhibition of HMG-CoA reductase activity in rat liver microsomes

Data set [16] is described as follows: in vivo. To be noted: rat, blood, iv, 10 mg/kg.
Description: Elimination half life in rat blood at 10 mg/kg, iv measured after 12 hrs

Non-standard residues stand in square brackets, D forms with d. Residues, ends and D or L forms follow the SMILES beside them. αMeP = C[C@@]1(C(=O)O)CCCN1

Chain of Voltage-gated inwardly rectifying potassium channel KCNH2 (Q12809 whole entry): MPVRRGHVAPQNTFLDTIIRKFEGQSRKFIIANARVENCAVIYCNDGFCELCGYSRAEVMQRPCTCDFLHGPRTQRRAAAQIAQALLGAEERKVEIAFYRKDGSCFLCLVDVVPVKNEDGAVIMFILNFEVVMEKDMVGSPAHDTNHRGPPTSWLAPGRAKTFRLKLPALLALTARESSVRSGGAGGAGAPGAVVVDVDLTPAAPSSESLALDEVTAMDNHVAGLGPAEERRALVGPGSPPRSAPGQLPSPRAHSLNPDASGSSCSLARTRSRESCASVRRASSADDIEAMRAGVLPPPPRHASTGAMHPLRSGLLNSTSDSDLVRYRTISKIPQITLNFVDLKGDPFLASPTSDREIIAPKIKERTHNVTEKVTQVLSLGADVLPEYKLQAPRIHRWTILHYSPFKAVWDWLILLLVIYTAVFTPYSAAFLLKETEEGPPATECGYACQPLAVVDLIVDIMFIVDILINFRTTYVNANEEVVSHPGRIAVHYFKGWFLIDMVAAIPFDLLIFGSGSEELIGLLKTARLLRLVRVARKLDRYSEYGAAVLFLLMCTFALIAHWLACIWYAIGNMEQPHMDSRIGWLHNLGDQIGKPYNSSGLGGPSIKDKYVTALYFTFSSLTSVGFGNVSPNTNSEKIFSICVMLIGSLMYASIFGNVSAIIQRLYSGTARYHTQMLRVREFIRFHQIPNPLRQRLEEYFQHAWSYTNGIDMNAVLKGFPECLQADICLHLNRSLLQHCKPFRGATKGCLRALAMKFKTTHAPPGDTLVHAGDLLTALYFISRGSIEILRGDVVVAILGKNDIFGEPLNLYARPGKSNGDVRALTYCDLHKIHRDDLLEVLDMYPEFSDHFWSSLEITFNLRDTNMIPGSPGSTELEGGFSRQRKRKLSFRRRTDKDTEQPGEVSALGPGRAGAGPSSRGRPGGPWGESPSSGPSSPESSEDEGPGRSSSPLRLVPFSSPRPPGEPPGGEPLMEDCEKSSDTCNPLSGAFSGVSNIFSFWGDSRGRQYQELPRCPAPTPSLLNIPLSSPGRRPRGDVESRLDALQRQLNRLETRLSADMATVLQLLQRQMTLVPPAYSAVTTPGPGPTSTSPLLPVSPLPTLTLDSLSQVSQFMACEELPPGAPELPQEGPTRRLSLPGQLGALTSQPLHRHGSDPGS
Chain of Bcr/Abl fusion protein (P00519 whole entry, the tested form may be a part): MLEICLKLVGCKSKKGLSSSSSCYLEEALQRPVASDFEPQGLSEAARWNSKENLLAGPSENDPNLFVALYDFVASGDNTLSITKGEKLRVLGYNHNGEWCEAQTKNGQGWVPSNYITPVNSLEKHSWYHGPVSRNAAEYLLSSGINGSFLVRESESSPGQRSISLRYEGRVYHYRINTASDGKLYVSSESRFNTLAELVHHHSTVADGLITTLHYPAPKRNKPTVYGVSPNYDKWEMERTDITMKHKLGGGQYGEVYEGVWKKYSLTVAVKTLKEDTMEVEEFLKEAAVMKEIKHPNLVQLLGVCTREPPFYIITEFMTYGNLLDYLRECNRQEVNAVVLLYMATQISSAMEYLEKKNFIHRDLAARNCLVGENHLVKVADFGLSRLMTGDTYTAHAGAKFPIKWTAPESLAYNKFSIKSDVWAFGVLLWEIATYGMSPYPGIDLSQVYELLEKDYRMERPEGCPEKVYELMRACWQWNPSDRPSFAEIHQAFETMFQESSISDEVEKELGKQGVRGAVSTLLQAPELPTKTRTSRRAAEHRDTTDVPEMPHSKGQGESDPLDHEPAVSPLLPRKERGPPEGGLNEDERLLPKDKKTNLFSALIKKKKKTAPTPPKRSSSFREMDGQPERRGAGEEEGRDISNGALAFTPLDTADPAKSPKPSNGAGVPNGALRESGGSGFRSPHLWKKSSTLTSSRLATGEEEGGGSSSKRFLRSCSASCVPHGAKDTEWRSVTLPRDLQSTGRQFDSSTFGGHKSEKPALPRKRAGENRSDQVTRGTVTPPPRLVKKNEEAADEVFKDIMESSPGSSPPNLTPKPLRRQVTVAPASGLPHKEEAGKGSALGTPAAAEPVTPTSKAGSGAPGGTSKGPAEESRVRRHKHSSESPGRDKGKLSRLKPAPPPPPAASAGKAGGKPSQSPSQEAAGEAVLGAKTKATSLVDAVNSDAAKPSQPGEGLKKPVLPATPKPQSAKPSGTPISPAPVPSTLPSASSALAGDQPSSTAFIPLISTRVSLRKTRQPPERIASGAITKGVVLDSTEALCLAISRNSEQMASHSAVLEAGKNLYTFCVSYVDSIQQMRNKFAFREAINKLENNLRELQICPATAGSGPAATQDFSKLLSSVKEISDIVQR
Chain of Bcr/Abl fusion protein (P11274 whole entry, further chain, the tested form may be a part): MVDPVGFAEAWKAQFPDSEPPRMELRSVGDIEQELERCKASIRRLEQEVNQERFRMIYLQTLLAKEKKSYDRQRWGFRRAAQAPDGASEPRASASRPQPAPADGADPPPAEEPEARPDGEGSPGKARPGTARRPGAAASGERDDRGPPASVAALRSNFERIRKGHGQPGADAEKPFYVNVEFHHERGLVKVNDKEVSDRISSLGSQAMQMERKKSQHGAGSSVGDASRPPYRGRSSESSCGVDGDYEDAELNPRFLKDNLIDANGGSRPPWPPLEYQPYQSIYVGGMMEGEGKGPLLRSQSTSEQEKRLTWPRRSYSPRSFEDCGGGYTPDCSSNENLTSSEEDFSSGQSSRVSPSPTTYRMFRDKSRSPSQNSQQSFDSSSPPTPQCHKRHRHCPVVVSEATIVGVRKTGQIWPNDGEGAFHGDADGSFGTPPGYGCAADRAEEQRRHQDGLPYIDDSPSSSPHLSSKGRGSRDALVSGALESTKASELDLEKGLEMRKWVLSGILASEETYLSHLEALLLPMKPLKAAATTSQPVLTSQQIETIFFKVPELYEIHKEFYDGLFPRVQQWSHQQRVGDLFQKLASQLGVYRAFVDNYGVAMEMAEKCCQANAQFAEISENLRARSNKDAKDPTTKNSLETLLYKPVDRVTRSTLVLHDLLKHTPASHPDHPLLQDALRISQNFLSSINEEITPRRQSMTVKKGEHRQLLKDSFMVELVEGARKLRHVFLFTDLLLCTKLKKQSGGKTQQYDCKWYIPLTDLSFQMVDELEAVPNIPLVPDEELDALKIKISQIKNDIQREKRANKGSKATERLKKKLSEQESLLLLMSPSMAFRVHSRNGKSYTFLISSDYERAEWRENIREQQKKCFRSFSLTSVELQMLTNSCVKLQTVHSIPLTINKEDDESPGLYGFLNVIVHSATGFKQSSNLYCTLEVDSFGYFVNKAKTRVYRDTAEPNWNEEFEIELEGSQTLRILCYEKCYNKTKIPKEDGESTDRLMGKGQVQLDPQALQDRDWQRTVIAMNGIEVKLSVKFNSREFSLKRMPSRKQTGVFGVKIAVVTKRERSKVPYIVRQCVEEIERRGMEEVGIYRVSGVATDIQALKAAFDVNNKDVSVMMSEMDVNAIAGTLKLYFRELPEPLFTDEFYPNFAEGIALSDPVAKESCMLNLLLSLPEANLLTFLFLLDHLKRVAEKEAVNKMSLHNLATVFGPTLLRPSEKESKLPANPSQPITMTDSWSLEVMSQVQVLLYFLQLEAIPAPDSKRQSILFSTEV

`O=C(Nc1cccc(Nc2nccc(-c3cccnc3)n2)c1)c1ccccc1` had an IC50 on Bcr/Abl fusion protein of 200 nM.
Consider `Cc1ccccc1CN1C(=O)C2=C(CCN(Cc3ccccc3)C2)N2CCN=C12.Cl.Cl.O`, for which the Tmax at 24 h in the data set “in vivo [1]” was found to be 0.42 h. Besides, the half-life at 24 h is 0.91 h in data set [2] and 1.05 h in data set [7]. In addition, the MRT at 24 h in data set [3] came out at 0.86 h; in data set [11], 1.46 h. Moreover, the AUC(0-t) at 24 h turned out to be 1960 ng·h/mL in “in vivo [4]” and 894 ng·h/mL in “in vivo [5]”. In addition, the CLint scaled in data set [6] was found to be 187 mL/min/kg. In addition, in data set [8], the clearance at 24 h came out at 42.7 mL/min/kg. The bioavailability at 24 h in the data set “in vivo [9]” stood at 15.2%. Besides, the half-life in data set [10] was 9.3 h. Also, the Cmax at 24 h in “in vivo [12]” amounted to 566 ng/mL.
Turning to `O=c1nc2n(c3c1CN(Cc1ccccc1)CC3)CCN2Cc1ccc(F)c(Br)c1`, half-maximal inhibition in data set [13] (IC50) was put at 1520 nM.
As for `O=c1nc(NCc2ccc(C(F)(F)F)cc2)[nH]c2c1CN(Cc1ccccc1)CC2`, the EC50 in [14] was determined as 2410 nM.
As to `C[C@@H]1Cc2nc(NCc3cccc4ccccc34)[nH]c(=O)c2CN1Cc1cccc(C#N)c1`, the IC50 in the data set on OCI-Ly10 stood at 105 nM. Besides, in data set [14], the EC50 came out at 67.9 nM.
In the case of `C[C@@H]1Cc2nc(NCc3ccc(C(F)(F)F)cc3)[nH]c(=O)c2CN1Cc1ccccc1O`, in the data set with OCI-Ly10, the IC50 came to 1290 nM. Besides, the EC50 in [14] stood at 846 nM.
Take `C[C@@H]1Cc2nc(NCc3ccc(C(F)(F)F)cc3)[nH]c(=O)c2CN1Cc1cccc(C#N)c1`: in the data set with OCI-Ly10, the IC50 is 41.6 nM. Besides, in data set [14], the EC50 stood at 56.1 nM.
As to `C[C@@H]1Cc2nc(NCc3ccc(Cl)cc3)[nH]c(=O)c2CN1Cc1cccc(C#N)c1`, the 50% inhibitory concentration (IC50) in the data set with OCI-Ly10 was found to be 13.5 nM. In addition, in data set [14], the EC50 amounted to 59.2 nM.
On the same counts, the results for `C[C@@H]1Cc2nc(NCc3ccc(C(F)(F)F)cc3)[nH]c(=O)c2CN1CC1CCCCC1` are 789 nM and 302 nM.
For the compound `Cc1cc(Br)ccc1CNc1nc2c(c(=O)[nH]1)CN(Cc1cccc(C#N)c1)[C@H](C)C2`, the IC50 in the data set with OCI-Ly10 amounted to 86.9 nM. Also, the EC50 in data set [14] amounted to 93 nM.
On the same counts, the results for `C[C@@H]1Cc2nc(NCc3ccc(Br)c(F)c3)[nH]c(=O)c2CN1Cc1cccc(C#N)c1` are 47.5 nM and 265 nM.
Taken in the same sequence, the figures for `C[C@@H]1Cc2nc(NCc3ccc(C(F)(F)F)cc3)[nH]c(=O)c2CN1Cc1cccc2ccccc12` were 8210 nM and 761 nM.
Taken in the same sequence, the figures for `C[C@@H]1Cc2nc(N3CCC(c4ccccc4)C3)[nH]c(=O)c2CN1Cc1cccc(C#N)c1` (some centres undefined) were 5750 nM and 707 nM.
For the compound `C[C@@H]1Cc2nc(NCc3ccc(C(F)(F)F)cc3)[nH]c(=O)c2CN1Cc1ccccc1`, in [14], the EC50 came to 65.1 nM.
With `Cc1ccccc1CNc1nc2c(c(=O)[nH]1)CN(Cc1cccc(C#N)c1)[C@H](C)C2`, the IC50 in the data set on OCI-Ly10 is 45 nM. Moreover, in data set [14], the EC50 amounted to 43.4 nM.
On to `Cc1ccc(CNc2nc3c(c(=O)[nH]2)CN(Cc2cccc(C#N)c2)[C@H](C)C3)cc1`, for which the IC50 in the data set on OCI-Ly10 worked out at 117 nM. In data set [14], the EC50 was determined as 26.9 nM.
Taken in the same sequence, the figures for `C[C@@H]1Cc2nc(NCc3ccc(C(F)(F)F)cc3)[nH]c(=O)c2CN1Cc1cccc(Br)c1` were 50.5 nM and 62.8 nM.
In the case of `C[C@@H]1Cc2nc(NCC3CC3)[nH]c(=O)c2CN1Cc1cccc(C#N)c1`, the IC50 in the data set on OCI-Ly10 was determined as 4030 nM. Also, the EC50 in [14] stood at 1430 nM.
On the same counts, the results for `C[C@@H]1Cc2nc(NCc3ccc(C(F)(F)F)cc3)[nH]c(=O)c2CN1Cc1ccc(C#N)cc1` are 6040 nM and 1360 nM.
Taken in the same sequence, the figures for `C[C@@H]1Cc2nc(NCc3ccccc3Br)[nH]c(=O)c2CN1Cc1cccc(C#N)c1` were 119 nM and 349 nM.
As for `C[C@@H]1Cc2nc(NCc3ccc(C(F)(F)F)cc3)[nH]c(=O)c2CN1Cc1ccc(F)cc1`, the IC50 with OCI-Ly10 was determined as 1080 nM. In addition, the EC50 in data set [14] came to 490 nM.
On the same counts, the results for `C[C@@H]1Cc2nc(NCc3ccc(C(F)(F)F)cc3)[nH]c(=O)c2CN1Cc1cccc(Cl)c1` are 110 nM and 151 nM.
Taken in the same sequence, the figures for `Cc1cccc(CNc2nc3c(c(=O)[nH]2)CN(Cc2cccc(C#N)c2)[C@H](C)C3)c1` were 148 nM and 113 nM.
Taken in the same sequence, the figures for `C[C@@H]1Cc2nc(NCc3ccc(C(F)(F)F)cc3)[nH]c(=O)c2CN1Cc1cccc(F)c1` were 153 nM and 272 nM.
As to `C[C@@H]1Cc2nc(NCc3ccc(C(F)(F)F)cc3)[nH]c(=O)c2CN1Cc1cccc(OC(F)(F)F)c1`, in the data set with OCI-Ly10, the IC50 was 1290 nM. Besides, the EC50 in [14] was 270 nM.
On the same counts, the results for `C[C@@H]1Cc2nc(NCc3ccc(C(F)(F)F)cc3)[nH]c(=O)c2CN1Cc1cccnc1` are 7840 nM and 3380 nM.
For `COc1cccc(CN2Cc3c(nc(NCc4ccc(C(F)(F)F)cc4)[nH]c3=O)C[C@H]2C)c1`, in the data set on OCI-Ly10, the IC50 worked out at 9010 nM. The EC50 in data set [14] came out at 1000 nM.
Take `C[C@@H]1Cc2nc(NCc3ccc(Br)cc3)[nH]c(=O)c2CN1Cc1cccc(C#N)c1`: the IC50 in data set [13] amounted to 4910 nM.
Regarding `C[C@@H]1Cc2nc(NCc3ccc(C(F)(F)F)cc3)[nH]c(=O)c2CN1Cc1ccncc1`, in the data set on OCI-Ly10, the IC50 is 6400 nM. Moreover, the EC50 in data set [14] was found to be 3960 nM.
On the same counts, the results for `C[C@@H]1Cc2nc(NCc3cccc(Br)c3)[nH]c(=O)c2CN1Cc1cccc(C#N)c1` are 89.1 nM and 44.8 nM.
On the same counts, the results for `C[C@@H]1Cc2nc(NCc3ccc(C(F)(F)F)cc3)[nH]c(=O)c2CN1Cc1ccccc1F` are 3100 nM and 1290 nM.
Regarding `CC[C@H](C)C(=O)O[C@H]1CCC=C2C=C[C@H](C)[C@H](CC[C@@H]3C[C@@H](O)CC(=O)O3)[C@H]21` [MEVASTATIN], the IC50 in data set [15] is 5.6 nM.
Consider `C[C@@]1(C(=O)N[C@@H](CCC(=O)O)C(=O)O)CCCN1C(=O)CN` [TROFINETIDE] (H-Gly-[αMeP]-Glu-OH), for which the half-life at 12 h in the data set “in vivo [16]” came out at 1.23 h.

Broadly, the IC50 is the concentration at which inhibition is half-maximal. The Tmax is the time at which the peak concentration occurs. A word on the half-life: it is how long it takes for the measured level to halve. What is called MRT is a mean duration of stay, worked out from the concentration-time curve. The AUC(0-t) is exposure summed from dosing to a finite time, without extrapolation to infinity. High values mean high exposure, low ones low exposure. As usually defined, the CLint scaled is the capacity of the preparation to metabolise the compound, expressed as a volume cleared per time. In general, clearance refers to the rate of elimination divided by the concentration. A higher clearance goes with efficient removal. As usually defined, the bioavailability is the share of a dose that reaches the circulation, judged against a reference dose that is usually intravenous. Read a high bioavailability as good availability. Usually Cmax stands for the highest concentration seen after dosing.

The record behind these values is ChEMBL document CHEMBL6153125, “Harnessing the Magic Methyl Effect: Discovery of CLPP-2068 as a Novel HsClpP Activator for the Treatment of Diffuse Large B-Cell Lymphoma” (J Med Chem, 2025).
